This note sets out measurements from patent US12173018B2, “Penicillin-binding protein inhibitors” (priority 2018, dated 2024).

In test [1] the test system is engineered strain of Escherichia coli harboring CTX-M15. Briefly: microbe, parasite or virus in culture. Type of test: cell-based. The conditions noted are these: Escherichia coli, read-out: Microbiological Activity (MIC in mg/L), E. coli DH5α/pLBII-CTX-M15, engineered strain producing CTX-M15.
In another test the target is E. coli PBP1a (Escherichia coli (strain K12), UniProt P02918). Briefly: Radioligand competition binding assay with 14C-labeled boronic acid probe, PBP1a. From the text:
To determine the ability of boronic acid-based test PBP inhibitors to bind Penicillin Binding Proteins (PBPs), a radio-labelled boronic acid PBP inhibitor
[drawing 751] was used in competition binding assays to determine boronic acid PBP inhibitor binding to PBP1a or PBP1b from Escherichia coli. PBP1a and PBP1b were purified as described previously (Bertsche, U.; et al., J. Biol. Chem. 2005, 280 (45), 38096-38101; Born, P.; et al., J. Biol. Chem. 2006. 281 (37), 26985-26993). To establish assay conditions for competition binding, an enzyme titration/saturation binding experiment was performed. Saturation binding was performed in a buffer comprised of 20 mM Tris (pH 7.5), 500 mM NaCl and 0.1% (v/v) TritonX-100, with PBP1a/PBP1b at a final concentration of 0.1 μM and Compound A at final concentrations ranging from 0-100 μM. Mixtures were incubated for 60 minutes, then applied to Zeba Spin Desalting columns or plates (ThermoFisher Scientific) and centrifuged at 1000-1500×g for 2 minutes. The flow through, containing PBP bound with Compound A, was recovered and 100 μL mixed with 5 mL of UltimaGold liquid scintillation cocktail (Perkin Elmer), and the radioactivity counted using a Beckman Coulter LS 6500 Multipurpose scintillation counter. PBP binding of Compound A approached saturation at 20 μM of ^14C-labeled probe. The competition binding assay was validated using the beta-lactam ampicillin, with Compound A at a final concentration of 20 μM, PBP1a/PBP1b at a final concentration of 0.1 μM. PBP1a/PBP1b was incubated with ampicillin in a 96-well microplate for 60 minutes, then Compound A was added and the mixtures incubated for an additional 60 minutes. The mixtures were then applied to Zeba Spin desalting plates and centrifuged at 1000×g for 2 minutes. The flow through was recovered and 100 μl mixed with 5 ml of UltimaGold liquid scintillation cocktail and the radioactivity counted. […] Binding assays with boronic acid PBP inhibitors were performed in an identical fashion. The potency of boronic acid PBP inhibitors was reported as the EC50 value.

The test system of test [2] is E. coli DH5α empty pLBII vector control strain. Briefly: microbe, parasite or virus in culture. Type of test: cell-based, Escherichia coli. The settings on record: Escherichia coli, read-out: Microbiological Activity (MIC in mg/L), E. coli DH5α/pLBII. The method, boiled down: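 MIC was the lowest concentration visibly free of growth after 16–20 h at 37 °C, against 5×10^5 CFU/mL of the empty-pLBII DH5α control strain. Twofold compound dilutions were made in cation-adjusted Mueller-Hinton broth.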

The next test deals with E. coli PBP3 (Escherichia coli (strain K12), UniProt P0AD68). Nature of the test: E. coli PBP3 Bocillin-FL fluorescence polarization competition binding assay. The method, boiled down: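 Purified E. coli PBP (1.5 μM final) competed with inhibitor (0-1000 μM) for Bocillin-FL (0.1 μM final) in 50 mM Hepes pH 8.0, 300 mM NaCl, 5% glycerol. Fluorescence polarization (ex 490/em 520 nm) was read continuously for 60 min after Bocillin-FL addition. EC50 was the concentration that reduced Bocillin-FL binding by 50%.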
A general note: In fluorescence polarisation assays a small probe gives low polarisation when free and higher when bound to something large.

In another test the target is E. coli PBP2 (Escherichia coli (strain K12), UniProt P0AD65). Nature of the test: E. coli PBP2 Bocillin-FL fluorescence polarization competition binding assay. The settings on record: fluorescence polarization competition binding with Bocillin-FL; read-out: E. coli K12 PBP2 Potency (EC50). An excerpt: To determine the ability of boronic acid-based test PBP inhibitors to bind Penicillin Binding Proteins (PBPs), Bocillin-FL (fluorescently-labeled penicillin V; ThermoFisher Scientific) was used in a fluorescence polarization (FP) competition binding assay to assess inhibitor binding to PBP2, PBP3 or PBP4 from Escherichia coli. PBPs were cloned and purified as described previously (King, D. T, et al., ACS Infectious Diseases 2015, 1, 175-184). To establish assay conditions for competition binding, an enzyme titration/saturation binding experiment was initially performed. Bocillin-FL was prepared at 0.2 μM in a buffer comprised of 50 mM Hepes (pH 8.0), 300 mM NaCl and 5% (v/v) glycerol. Saturation binding was performed by mixing 40 μl of PBP solutions ranging in concentrations from 0-12 μM with 40 μl of the 0.2 μM Bocillin-FL solution, in individual wells of a black 384-well microplate. FP was measured immediately upon mixing (Excitation, 490 nm; Emission, 520 nm; g-factor, 0.96), using a Cytation3 (BioTek) microplate reader and measured continuously for up to 120 minutes. […] For all PBPs the FP signal approached saturation with 1.5 μM PBP (final concentration). […] Assays (80 μl final volume) were performed with PBPs at a final concentration of 1.5 μM, Bocillin-FL at 0.1 μM and beta-lactam concentrations that ranged from 0-1000 μM. […] Bocillin-FL was added and the FP immediately measured for 60 minutes (90 minutes for PBP2). The beta-lactam potency was reported as the concentration of beta-lactam required to reduce binding of Bocillin-FL by […] (EC50). […] Binding assays for boronic acid PBP inhibitors were performed in an identical fashion.

Another test deals with P. aeruginosa ATCC 27853. Briefly: Broth microdilution MIC, P. aeruginosa ATCC 27853. The settings on record: Pseudomonas aeruginosa, ATCC27853; P. aeruginosa ATCC 27853, broth microdilution; read-out: MIC P. aeruginosa ATCC 27853. Type of test: cell-based. The protocol:
To determine the ability of test compounds to potentiate the inhibition of the growth of bacterial strains, classic cell based broth microdilution minimum inhibitory concentration (MIC) assays were employed. MIC assays are performed according to CLSI methods except where otherwise noted (CLSI, 2011 and CLSI, 2009). The reference type strain E. coli ATCC 25922, the wild-type parent strain E. coli AG100, the hyper-permeable E. coli 901C and E. coli D22 and the E. coli AG100A strain lacking the acrAB efflux pump encoding genes were used to determine the ability of the PBP inhibitors to penetrate the outer membrane of gram-negative bacteria and inhibit bacterial growth. […] The P. aeruginosa PAO1, P. aeruginosa ATCC 27853 and A. baumannii ATCC 19606, along with the hyper-permeable P. aeruginosa ATCC 35151 and an engineered efflux pump-compromised strain of P. aeruginosa (ΔmexAB-oprM) were used to determine the ability of PBP inhibitors to penetrate the outer membrane of P. aeruginosa and A. baumannii and assess antibacterial activity against these important gram-negative organisms.
Briefly, cryo-preserved bacterial cultures of challenge strains are streaked for isolation on appropriate agar medium, in this case Mueller Hinton II agar. Following incubation to allow growth of the colonies, plates are sealed with parafilm and stored refrigerated for up to two weeks. For preparation of assay inoculum and to ensure low variability, at least 5 colonies are picked from the agar plates with an inoculating loop and aseptically transferred to a culture tube containing 3 mL of Mueller-Hinton Broth (supplemented with divalent cations to required levels based on Manufacturers' certification). The broth culture is grown for 3-5 hours at 37° C. with shaking at 200 rpm. Meanwhile, 2-fold serial dilutions of test compounds are conducted in a 96 well plate with a final volume of 75 μL per well at 2-fold the final desired concentration. After the dilution plates are set up the growing cultures are then diluted in a cuvette containing MH II broth and the optical density is measured at 600 nm. The Inoculum is diluted such that 75 μL of this culture in Mueller-Hinton Broth results in a starting bacterial concentration of 5×10^5 CFU/mL when added to the dilution plates. The plates are incubated for 16-20 hours at 37° C. The MIC values are read visually as the lowest concentration well with no bacterial growth.

The next test deals with E. coli AG100. Nature of the test: Broth microdilution MIC, E. coli AG100 (wild-type parent). Format: cell-based. The settings on record: Escherichia coli; wild-type parent E. coli AG100, broth microdilution; read-out: MIC E. coli AG100. In a few lines:
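Starting inoculum of 5×10^5 CFU/mL, from colonies grown 3-5 h in Mueller-Hinton broth with divalent cations, added to two-fold compound dilution series.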

In the next test the test system is K. pneumoniae SI-117. Nature of the test: microbe, parasite or virus in culture. Format: cell-based. The settings on record: Klebsiella pneumoniae, SI117, read-out: MIC K. pneumoniae SI-117. The method, boiled down: (§1)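 Broth microdilution MICs followed CLSI methods in cation-supplemented Mueller-Hinton broth, with 2-fold serial compound dilutions. Log-phase cultures grown 3–5 h were added to a starting inoculum of 5×10^5 CFU/mL and incubated 16–20 h at 37 °C. The MIC was read visually as the lowest concentration with no growth.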

A further test concerns E. coli D22. Briefly: microbe, parasite or virus in culture. Type of test: cell-based. The settings on record: Escherichia coli; hyper-permeable E. coli D22, broth microdilution; read-out: MIC E. coli D22. In a few lines:
as §1

The test system of a further test is P. aeruginosa ATCC 35151. Nature of the test: microbe, parasite or virus in culture. Format: cell-based. The conditions noted are these: Pseudomonas aeruginosa, ATCC35151; hyper-permeable P. aeruginosa ATCC 35151; read-out: MIC P. aeruginosa ATCC 35151. The method, boiled down: as §1
A further test relates to E. coli AG100A. Nature of the test: microbe, parasite or virus in culture. Format: cell-based. The settings on record: Escherichia coli, read-out: MIC E. coli AG100A. In a few lines:
as §1

For the next test, the system named is K. pneumoniae UMM. Nature of the test: microbe, parasite or virus in culture. Format: cell-based. The conditions noted are these: Klebsiella pneumoniae; K. pneumoniae UMM producing SHV-5 and KPC-2; read-out: MIC K. pneumoniae UMM. The method, boiled down:
as §1

In test [3] the test system is P. aeruginosa (ΔmexAB-oprM). Briefly: microbe, parasite or virus in culture. Format: cell-based. The settings on record: Pseudomonas aeruginosa, read-out: MIC P. aeruginosa ΔmexAB-OprM. The method, boiled down:
as §1

A further test deals with E. coli 901C. Nature of the test: microbe, parasite or virus in culture. Type of test: cell-based. The conditions noted are these: Escherichia coli; hyper-permeable E. coli 901C, broth microdilution; read-out: MIC E. coli 901C. The method, boiled down: as §1
The test system of a further test is A. baumannii ATCC 19606. Briefly: Broth microdilution MIC, A. baumannii ATCC 19606. Format: cell-based. The settings on record: Acinetobacter baumannii, ATCC19606; A. baumannii ATCC 19606, broth microdilution; read-out: MIC A. baumannii ATCC 19606. In a few lines: as §1
The subject of another test is E. coli ATCC 25922. Briefly: Broth microdilution MIC, E. coli ATCC 25922. Format: cell-based. The conditions noted are these: Escherichia coli, ATCC25922; E. coli ATCC 25922, broth microdilution; read-out: MIC E. coli 25922. In a few lines:
as §1
A general note: In broth dilution the organism is exposed to a series of concentrations in liquid medium.

Converted amounts (≈) assume the structure as drawn. Like-named read-outs stand apart in the source and are kept apart here.

E. coli PBP3, sequence (P0AD68 whole entry): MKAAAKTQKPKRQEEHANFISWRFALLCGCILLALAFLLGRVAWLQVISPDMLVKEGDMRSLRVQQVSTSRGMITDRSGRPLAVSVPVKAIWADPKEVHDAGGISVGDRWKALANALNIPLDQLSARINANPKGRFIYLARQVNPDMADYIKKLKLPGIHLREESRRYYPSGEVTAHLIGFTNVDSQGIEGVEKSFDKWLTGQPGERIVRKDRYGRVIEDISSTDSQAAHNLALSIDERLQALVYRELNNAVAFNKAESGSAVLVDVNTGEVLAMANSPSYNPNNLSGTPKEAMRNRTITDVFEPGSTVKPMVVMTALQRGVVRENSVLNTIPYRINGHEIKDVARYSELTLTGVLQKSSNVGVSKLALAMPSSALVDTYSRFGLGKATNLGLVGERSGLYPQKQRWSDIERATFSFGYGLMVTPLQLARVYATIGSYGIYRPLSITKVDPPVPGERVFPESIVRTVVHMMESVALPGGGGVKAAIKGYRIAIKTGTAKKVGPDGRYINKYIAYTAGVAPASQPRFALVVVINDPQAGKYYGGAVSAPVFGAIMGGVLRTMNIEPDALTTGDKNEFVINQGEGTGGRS
E. coli PBP2, sequence (P0AD65 whole entry): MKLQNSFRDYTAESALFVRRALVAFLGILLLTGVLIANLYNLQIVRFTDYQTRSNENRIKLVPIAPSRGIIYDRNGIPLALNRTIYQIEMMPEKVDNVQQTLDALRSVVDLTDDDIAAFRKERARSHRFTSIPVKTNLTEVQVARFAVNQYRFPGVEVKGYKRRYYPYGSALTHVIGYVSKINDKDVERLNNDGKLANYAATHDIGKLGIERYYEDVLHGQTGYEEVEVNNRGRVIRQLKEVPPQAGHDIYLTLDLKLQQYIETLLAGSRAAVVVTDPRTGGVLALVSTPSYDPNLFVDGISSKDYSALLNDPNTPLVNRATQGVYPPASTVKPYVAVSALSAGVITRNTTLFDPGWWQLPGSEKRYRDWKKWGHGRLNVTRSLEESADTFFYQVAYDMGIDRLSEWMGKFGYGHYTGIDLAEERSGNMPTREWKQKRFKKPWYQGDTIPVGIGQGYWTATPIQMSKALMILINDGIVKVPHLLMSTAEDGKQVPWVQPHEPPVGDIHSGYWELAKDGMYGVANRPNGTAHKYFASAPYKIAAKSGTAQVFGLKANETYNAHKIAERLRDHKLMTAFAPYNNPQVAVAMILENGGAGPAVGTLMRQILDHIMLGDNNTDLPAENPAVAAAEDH
E. coli PBP1a, sequence (P02918 whole entry): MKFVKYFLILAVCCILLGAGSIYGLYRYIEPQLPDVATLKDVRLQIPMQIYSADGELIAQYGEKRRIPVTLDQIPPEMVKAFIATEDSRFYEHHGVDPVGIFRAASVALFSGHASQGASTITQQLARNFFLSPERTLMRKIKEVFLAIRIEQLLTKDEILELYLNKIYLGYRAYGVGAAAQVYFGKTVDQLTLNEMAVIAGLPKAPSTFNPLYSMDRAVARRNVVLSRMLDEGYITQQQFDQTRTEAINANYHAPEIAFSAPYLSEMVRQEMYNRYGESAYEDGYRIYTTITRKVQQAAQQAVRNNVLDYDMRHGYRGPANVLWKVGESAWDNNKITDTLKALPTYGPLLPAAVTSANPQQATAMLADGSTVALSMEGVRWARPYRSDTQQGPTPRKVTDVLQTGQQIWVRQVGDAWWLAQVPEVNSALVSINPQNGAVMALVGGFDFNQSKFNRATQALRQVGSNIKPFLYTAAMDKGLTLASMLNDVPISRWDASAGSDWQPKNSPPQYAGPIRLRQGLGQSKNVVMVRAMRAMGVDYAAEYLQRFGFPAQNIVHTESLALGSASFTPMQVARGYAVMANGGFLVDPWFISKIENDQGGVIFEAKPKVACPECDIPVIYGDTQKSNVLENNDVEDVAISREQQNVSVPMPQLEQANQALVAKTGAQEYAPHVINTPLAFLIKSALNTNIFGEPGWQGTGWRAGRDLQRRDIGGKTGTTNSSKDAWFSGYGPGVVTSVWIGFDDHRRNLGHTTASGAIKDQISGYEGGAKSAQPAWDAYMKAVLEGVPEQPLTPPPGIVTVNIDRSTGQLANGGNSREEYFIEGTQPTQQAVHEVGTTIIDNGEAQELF

Take `CCN1CCN(C(=O)NC(C(=O)N[C@H]2Cc3cccc(C(=O)O)c3OB2O)c2ccc(OC)nc2)C(=O)C1=O` (stereo partly drawn) [Example 34, (3R)-3-(2-(4-ethyl-2,3-dioxopiperazine-1-carboxamido)-2-(6-methoxypyridin-3-yl)acetamido)-2-hydroxy-3,4-dihydro-2H-benzo[e][1,2]oxaborinine-8-carboxylic acid]: the MIC in [1] and in [2] was 128 to 256 mg/L (≈ 237 to 475 µM) each time. Besides, the values for the EC50 on E. coli PBP1a, at E. coli PBP3 and at E. coli PBP2 were < 10 µM, 30 to 500 µM and > 500 µM, respectively.
`CCN1CCN(C(=O)NC(C(=O)N[C@H]2Cc3cccc(C(=O)O)c3OB2O)c2ncc(C(N)=O)cc2F)C(=O)C1=O` (stereo partly drawn) [Example 246, (3R)-3-(2-(5-carbamoyl-3-fluoropyridin-2-yl)-2-(4-ethyl-2,3-dioxopiperazine-1-carboxamido)acetamido)-2-hydroxy-3,4-dihydro-2H-benzo[e][1,2]oxaborinine-8-carboxylic acid]: the MIC with P. aeruginosa ATCC 27853 was > 128 µg/mL; in the test with E. coli AG100, > 128 µg/mL; with K. pneumoniae SI-117, > 128 µg/mL; in the test on E. coli D22, 32 to 64 µg/mL; in the test on P. aeruginosa ATCC 35151, 2 to 4 µg/mL; with E. coli AG100A it was 32 to 64 µg/mL. The MIC was > 128 µg/mL in the test with K. pneumoniae UMM; 32 to 64 µg/mL in test [3]; 2 to 4 µg/mL in the test with E. coli 901C; > 128 µg/mL with A. baumannii ATCC 19606; > 128 µg/mL in the test on E. coli ATCC 25922. Besides, the EC50 at E. coli PBP3 is 30 to 500 µM.
Consider `CCN1CCN(C(=O)NC(C(=O)N[C@H]2Cc3cccc(C(=O)O)c3OB2O)c2ccc(O)c([N+](=O)[O-])c2)C(=O)C1=O` (stereo partly drawn) [Example 247, (3R)-3-(2-(4-ethyl-2,3-dioxopiperazine-1-carboxamido)-2-(4-hydroxy-3-nitrophenyl)acetamido)-2-hydroxy-3,4-dihydro-2H-benzo[e][1,2]oxaborinine-8-carboxylic acid], for which the MIC is > 128 µg/mL with P. aeruginosa ATCC 27853; 32 to 64 µg/mL in the test with E. coli AG100; > 128 µg/mL in the test on K. pneumoniae SI-117; 2 to 4 µg/mL in the test with E. coli D22; 0.5 to 1 µg/mL with P. aeruginosa ATCC 35151; 2 to 4 µg/mL with E. coli AG100A. Besides, the MIC was > 128 µg/mL in the test on K. pneumoniae UMM; 8 to 16 µg/mL in test [3]; < 0.25 µg/mL in the test on E. coli 901C; > 128 µg/mL in the test with A. baumannii ATCC 19606; 32 to 64 µg/mL in the test with E. coli ATCC 25922. Besides, on E. coli PBP3 (fluorescence polarization competition binding with Bocillin-FL, read-out: E. coli K12 PBP3 Potency), the EC50 is < 30 µM.
